Assay results reported in patent US3950374A, “Carbamate pesticide” (priority 1972, dated 1976).
Converted amounts (≈) assume the structure as drawn. Like-named read-outs stand apart in the source and are kept apart here.

Legend:
Assay type in all cases: in vivo
nematode = assay: Effect on nematode (Test Example 6); details: 500 ppm active ingredient; after 24 hours
Procedure: 0.5 ml. of a nematode-containing aqueous solution separated from food is placed in a test tube with ground stopper containing 0.5 ml. of an aqueous dilute solution of each emulsifiable concentrate of the present compounds. The concentration of the active ingredient in the mixture is adjusted to 500 ppm. After 24 hours, the number of dead and live nematodes are observed microscopically to calculate the mortality rate.

[1] = system: green rice leafhoppers (Nephotettix cincpiceps); assay: Effect on green rice leafhoppers in soil treatment (Test Example 4); details: 6 % granules, 6 kg./10 ares soil treatment; released after 3 days, observed after 24 hours
Procedure: Effect on green rice leafhoppers (Nephotettix cincpiceps) in soil treatment.
(§1) Each of 6 % granules of the present compounds is applied in a ratio of 6 kg./10 ares near the root of rice plants grown into the tillering stage in a 1/100,000 Wagner's pot. After 3 days, 30 adult leafhoppers are released and covered with a wire cage. After 24 hours, the number of dead and live leafhoppers are observed to calculate the mortality rate.

[2] = system: smaller brown planthoppers (Loadelphax striatellus); assay: Residual effect on smaller brown planthoppers (Test Example 11); details: 1000 fold dilute solution of 50 % emulsifiable concentrate; for Mortality after 4 days: after 4 days (residual effect); for Mortality after 7 days: after 7 days (residual effect)
Procedure: Residual effect on smaller brown planthoppers (Loadelphax striatellus).
From 18 to 23 rice plants are grown into a 3 - 4 leaves stage in each flower pot of 10 cm. in diameter, then a 1000 fold aqueos dilute solution of each 50 % emulsifiable concentrate of the present componds is applied thereto. After air-drying, each pot is covered with a wire cage, and 20 - 30 adult planthoppers are released therein, and after 24 hours the mortality rate is calculated. Furthermore, the planthoppers are released each day to investigate the residual effect of the present compounds.

[3] = system: smaller brown planthoppers (Lacdelphax striatellus); assay: Lethal effect on smaller brown planthoppers (Test Example 1)
Procedure: Lethal effect on smaller brown planthoppers (Lacdelphax striatellus)
Rice plants (15 to 20 cm tall) 15 days after germination, are dipped for 1 minute into each aqueous dilute solution of the present compounds in the form of emulsifiable concentrates, and placed in large glass tubes separately after air-drying. Thereafter, 20 to 30 adult planthoppers are released therein and covered with a wire net. After 24 hours, the number of dead and live planthoppers are observed to calculate LC50. The number of the compounds in Table 1 correspond to those of the compounds mentioned above.

[4] = system: larvae of northern house mosquito (Culex pipien pallens); assay: Effect on mosquito larvae (Test Example 8)
Procedure: Effect on mosquito larvae.
200 ml. of an aqueous solution of each emulsifiable concentrate of the present compounds which is adjusted to the concentration of 1 ppm with pure water are placed in a 300 ml. beaker and 30 larvae of northern house mosquito (Culex pipien pallens) are released therein. the mortality rate is calculated.

[5] = system: tobacco cut worm (Spodoptera litura); assay: Effect on tobacco cut worm (Test Example 7); details: 1000 fold dilute solution of emulsifiable concentrate, fourth instar larvae
Procedure: Effect on tobacco cut worm (Spodoptera litura).
A 1000 fold dilute solution of each emulsifiable concentrate of the present compounds is applied by means of a turn table to a potted chinese cabbage 60 days after sowing. After air-drying, fourth instar larvae of the tobacco cut worm are released and the mortality rate after 24 hours and 48 hours is calculated.

[6] = system: green peach aphids (Myzus persicae); assay: Effect on green peach aphids in soil treatment (Test Example 3); details: 5 % granules, 6 kg./10 ares soil treatment; after 3 days; chinese cabbages
Source text: Effect on green peach aphids (Myzus persicae) in soil treatment.
Many of the aphids are made parasitic on chinese cabbages grown in a pot one month after sowing, and each of 5 % granules of the present compounds is applied in a ratio of 6 kg./10 ares near the root thereof. After 3 days, the number of dead and live aphids are observed to calculate the mortality rate.

[7] = system: rice stem borer (Chilo suppressalis); assay: Lethal effect on rice stem borer (Test Example 5); details: 1000 fold dilute solution of 50 % emulsifiable concentrate; 4 days after application
Source text: Lethal effect on rice stem borer (Chilo suppressalis).
Eggs just before hatching of the rice stem borer are applied in a ratio of 100/pot near the root of rice plants grown into the tillering stage in a 1/100,000 Wagner's pot. After the eggs hatched and the larvae enter into stems of rice plants, a 1000 fold dilute solution of each 50 % emulsifiable concentrate of the present compounds is applied by means of a turn table. The number of dead and live stem borers are observed to calculate the mortality rate 4 days after application.

[8] = system: smaller brown planthoppers (Laodelphax striatellus); assay: Effect on smaller brown planthoppers in soil treatment (Test Example 2); details: 6 % granules, 6 kg./10 ares soil treatment; released after 3 days, observed after 24 hours
Procedure: Effect on smaller brown planthoppers (Laodelphax striatellus) in soil treatment.
as §1, with “stage” for “stage in”, “planthoppers” for “leafhoppers”

[9] = system: carmine mite (Tetranychus telarius); assay: Acaricidal activity on carmine mite (Test Example 10); details: 1000 fold dilute solution of 40 % wettable powder, 10 ml./pot, after 10 days
Procedure: Acaricidal activity on carmine mite (Tetranychus telarius).
From 10 to 15 female carmine mites are made parasitic, in a ratio of 10 - 15/leaf, on leaves of potted kidney beans is (a leaves stage), 9 days after sowing, and kept at 27°C. For a week in a constant temperature room, then breeding of numerous carmine mites at various growth stages can be observed. At this time, a 1000 fold aqueous dilute solution of each 40 % wettable powder of the present compounds is sprayed by means of a turn table in a ratio of 10 ml./pot. After 10 days, the degree of damage of kidney beans and the degree of breeding of mites are observed and classified into five grades (-, +, […] , +++, ++++ ).
The degree of damage of kidney bean leaves:
-; damage is hardly observed, […]
and the degree of damage in between the two extremes is classified into three grades.
The degree of breeding of carmine mites: -; the number alive is less than 10, ++++; the alive are numerous, and the degree of breeding in between the two extremes is classified into three grades.

| Structure (SMILES) | Mortality (nematode) | Mortality [1] | Mortality after 1 day [2] | Mortality after 4 days [2] | Mortality after 7 days [2] | LC50 ([3]; 24 h) | other results |
| --- | --- | --- | --- | --- | --- | --- | --- |
| CN(C(=O)Oc1ccc(Cl)cc1)[S+]([O-])c1ccccc1 (stereo not drawn) [Compound 2] | 79.8% | 75.0% | 96.7% | 75.0% | 20.0% | 20 µg/mL (≈ 64.6 µM) |  |
| Cc1cccc(OC(=O)N(C)[S+]([O-])c2ccccc2)c1C (stereo not drawn) [Compound 3] |  |  | 100% | 64.0% | 50.0% | 70 µg/mL (≈ 231 µM) |  |
| Cc1ccc(OC(=O)N(C)[S+]([O-])c2ccccc2)c(C)c1 (stereo not drawn) [Compound 4] |  |  | 100% | 83.3% | 53.3% | 33 µg/mL (≈ 109 µM) |  |
| Cc1cc(C)cc(OC(=O)N(C)[S+]([O-])c2ccccc2)c1 (stereo not drawn) [Compound 5] |  | 68.0% | 100% | 100% | 45.0% | 18 µg/mL (≈ 59.3 µM) |  |
| Cc1ccc(OC(=O)N(C)[S+]([O-])c2ccccc2)cc1C (stereo not drawn) [Compound 6] | 100% |  | 90.0% | 63.3% | 50.0% | 25 µg/mL (≈ 82.4 µM) | mortality at 1 ppm [4]: 70% |
| Cc1cccc(OC(=O)N(C)[S+]([O-])c2ccccc2)c1 (stereo not drawn) [Compound 7] |  | 96.7% | 86.7% | 65.0% | 46.7% | 43 µg/mL (≈ 149 µM) |  |
| Cc1ccc([S+]([O-])N(C)C(=O)Oc2ccc(C)c(C)c2)cc1 (stereo not drawn) [Compound 8] |  |  | 85.0% | 50.0% | 42.0% | 50 µg/mL (≈ 158 µM) | mortality at 1 ppm [4]: 100% |
| Cc1ccc([S+]([O-])N(C)C(=O)Oc2cccc(C)c2C)cc1 (stereo not drawn) [Compound 9] |  | 83.3% | 100% | 62.3% | 30.0% | 29 µg/mL (≈ 91.4 µM) | mortality at 1 ppm [4]: 66.7% |
| Cc1ccc(OC(=O)N(C)[S+]([O-])c2ccc([N+](=O)[O-])cc2)cc1C (stereo not drawn) [Compound 10] |  | 72.2% | 100% | 50.0% | 23.3% | 33 µg/mL (≈ 94.7 µM) |  |
| Cc1ccc(OC(=O)N(C)[S+]([O-])c2ccc(Cl)cc2)cc1C (stereo not drawn) [Compound 11] | 75.0% |  | 100% | 85.0% | 75.0% | 40 µg/mL (≈ 118 µM) | mortality at 1 ppm [4]: 100% |
| CCC[S+]([O-])N(C)C(=O)ON=C(C)SC (stereo not drawn) [Compound 13] | 100% |  |  |  |  |  | Mortality After 24 hrs. [5]: 100%; Mortality After 48 hrs. [5]: 100%; Mortality [6]: 96.7%; Mortality [7]: 83.2% |
| CCCCCCCCCCCC[S+]([O-])N(C)C(=O)ON=C(C)SC (stereo not drawn) [Compound 14] | 100% |  |  |  |  |  | Mortality After 24 hrs. [5]: 90%; Mortality After 48 hrs. [5]: 100%; Mortality [6]: 76.5%; Mortality [8]: 90.0% |
| CSC(C)=NOC(=O)N(C)[S+]([O-])c1ccccc1 (stereo not drawn) [Compound 15] | 100% | 70.0% |  |  |  |  | mortality at 1 ppm ([4]; 1 ppm aqueous solution of emulsifiable concentrate, 30 larvae, time not stated, read-out: Mortality): 78.3%; Mortality [6]: 95.9%; Mortality [7]: 82.3%; Degree of breeding ([9]; carmine mites): - (the number alive is less than 10); Degree of damage ([9]; kidney bean leaves): -~+; LC50 ([3]; rice plants dipped 1 minute in dilute emulsifiable concentrate, after 24 hours, read-out: LC50): 123 µg/mL (≈ 430 µM) |
| CCC(=NOC(=O)N(C)[S+]([O-])c1ccccc1)SC (stereo not drawn) [Compound 19] |  |  |  |  |  |  | Mortality [7]: 66.7% |
| CCCSC(C)=NOC(=O)N(C)[S+]([O-])c1ccc(Cl)cc1 (stereo not drawn) [Compound 21] | 65.0% |  |  |  |  |  |  |
| CNC(=O)Oc1ccc(C)c(C)c1 [Meobal, 3,4-dimethylphenyl-N-methylcarbamate, reference compound] |  |  | 100% | 53.2% | 10.0% |  |  |
